We go through four compounds from ChEMBL document CHEMBL1147257, “New cytotoxic steroidal alkaloids from the Philippine sponge Corticium niger” (J Nat Prod, 2003).

The structures appear in SMILES notation.

For this assay, the system named is HCT-116. Briefly: Cytotoxicity against human HCT116 cells after 72 hrs by MTS/PMS bioreduction assay. It counts as functional, cell-based. The conditions noted are these: HCT-116, 72 h.
The term IC50 denotes the midpoint of a concentration-inhibition curve. The low end stands for greater potency, the high end for weaker potency. Regarding `CC(C)C1CCN(C)C1C[C@@H](C)[C@H]1CC[C@H]2C3=CC[C@H]4[C@H](N)C=CC[C@]4(C)[C@H]3CC[C@]12C` (some centres undefined) [PLAKINAMINE J], the IC50 was found to be 6.1 µM. This lies in the single-digit micromolar range. The same measure for `CC(C)=C1CCN2[C@@H]1C[C@@H](C)[C@H]1[C@@H]2C[C@H]2C3=CC[C@H]4C[C@H](N(C)C)CC[C@]4(C)[C@H]3CC[C@]12C` [PLAKINAMINE I]: 10.6 µM. In turn, `CN[C@@H]1CC[C@]2(C)[C@H]3CC[C@]4(C)[C@@H]([C@H](C)CC5NCCC5=C(C)C)CC[C@H]4C3=CC[C@H]2[C@H]1OC(C)=O` (some centres undefined) [PLAKINAMINE K] had an IC50 of 1.4 µM. The same measure for `CN[C@@H]1CC[C@]2(C)[C@H]3CC[C@]4(C)[C@@H]([C@H](C)CC5NCCC5C(C)C)CC[C@H]4C3=CC[C@H]2[C@H]1OC(C)=O` (some centres undefined): 1.4 µM.
